From patent US20210290784A1, “POSITRON EMISSION TOMOGRAPHY (PET) RADIOTRACERS FOR IMAGING MACROPHAGE COLONY-STIMULATING FACTOR 1 RECEPTOR (CSF1R) IN NEUROINFLAMMATION” (The Johns Hopkins University, priority 2018, published 2021)
Entries after “also recorded” stand apart in the source; their conditions may differ.

How the values were obtained:
[1] = Plasma free fraction, centrifree ultrafiltration; format: in vitro ADME; conditions: baboon plasma, not affected by LPS or LPS and blocking
[2] = Mouse plasma and brain radiometabolite analysis; format: in vivo, mice
Method: The animals were injected IV with 37 MBq (1 mCi) [^11C]CPPC [specific radioactivity=673 GBq/μmol (18.2 Ci/μmol)] and sacrificed by cervical dislocation at 10 min (3 animals) and 30 min (3 animals) after the radiotracer injection. […] Radiometabolites of [^11C]CPPC in the mouse plasma and brain were analyzed using a general HPLC method described above for baboon. Before the HPLC analysis the mouse brain was homogenized in 2 mL of mixture 50% acetonitrile: 50% phosphate buffer (Et3N, H3PO4, pH 7.2). The homogenates were centrifuged (14000 g for 5 min) and supernatants filtered using 0.2 micron filter and filtrate was analyzed by radio-HPLC with phenomenex Gemini C18, 10μ, 4.6×250 mm and 2 mL/min isocratic elution and 50% acetonitrile-50% aqueous triethylamine, c=0.06 M and pH=7.2 as mobile phase. […] The radiometabolites poorly penetrate the blood-brain barrier and their presence in the brain is low (Table 4)

[3] = test system: CSF1R; test: Baboon PET (baseline, LPS, LPS-plus-blocking)
[4] = biological target: CSF1R (Homo sapiens, UniProt P07333); test: Postmortem human brain autoradiography; format: binding; set-up: from tissue; conditions: for Autoradiography binding, Baseline: inferior parietal cortex slices
CSF1R (Homo sapiens, UniProt P07333), sequence (P07333 20-972): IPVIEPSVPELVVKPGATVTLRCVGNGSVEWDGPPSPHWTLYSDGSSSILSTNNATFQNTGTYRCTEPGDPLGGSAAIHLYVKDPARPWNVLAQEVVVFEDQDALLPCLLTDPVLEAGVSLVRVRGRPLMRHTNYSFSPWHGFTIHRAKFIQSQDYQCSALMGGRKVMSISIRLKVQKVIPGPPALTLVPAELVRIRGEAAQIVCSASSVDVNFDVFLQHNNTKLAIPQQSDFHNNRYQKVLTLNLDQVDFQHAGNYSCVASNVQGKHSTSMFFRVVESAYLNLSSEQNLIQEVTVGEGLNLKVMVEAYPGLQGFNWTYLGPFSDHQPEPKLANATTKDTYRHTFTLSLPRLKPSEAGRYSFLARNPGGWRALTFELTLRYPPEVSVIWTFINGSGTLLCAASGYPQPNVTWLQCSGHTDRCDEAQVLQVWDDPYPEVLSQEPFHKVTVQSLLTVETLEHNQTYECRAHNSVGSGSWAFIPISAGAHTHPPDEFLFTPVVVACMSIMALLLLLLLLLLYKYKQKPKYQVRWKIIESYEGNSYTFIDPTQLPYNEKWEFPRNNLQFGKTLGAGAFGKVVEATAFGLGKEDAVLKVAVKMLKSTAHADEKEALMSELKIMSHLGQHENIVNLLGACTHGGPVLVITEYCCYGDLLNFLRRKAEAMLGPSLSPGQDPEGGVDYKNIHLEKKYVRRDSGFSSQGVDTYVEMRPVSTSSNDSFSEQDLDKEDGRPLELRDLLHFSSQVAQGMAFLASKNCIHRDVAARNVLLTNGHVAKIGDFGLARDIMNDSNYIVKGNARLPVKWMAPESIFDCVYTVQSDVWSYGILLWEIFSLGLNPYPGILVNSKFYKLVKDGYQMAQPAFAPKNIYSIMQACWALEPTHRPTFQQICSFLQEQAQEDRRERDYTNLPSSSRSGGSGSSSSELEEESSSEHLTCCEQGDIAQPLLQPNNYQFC
Excerpt: Use of human tissues has been approved by the Institutional Review Board of the Johns Hopkins Medical Institutions. […] The slides were exposed to X-ray film and analyzed with outcome expressed as pmol/mm^3 of wet tissue±SD.

[5] = biological target: T1, CSF1R (Mus musculus, UniProt P09581); test: Brain uptake in intracranial LPS (i.c.-LPS) mouse model of neuroinflammation; format: in vivo; set-up: from tissue; host or cells: brain of living CD-1, C57BL/6J, transgenic APP (AD model), EAE and CSF1R KO mice; conditions: i.c.-LPS mice
T1 sequence (P09581 20-977): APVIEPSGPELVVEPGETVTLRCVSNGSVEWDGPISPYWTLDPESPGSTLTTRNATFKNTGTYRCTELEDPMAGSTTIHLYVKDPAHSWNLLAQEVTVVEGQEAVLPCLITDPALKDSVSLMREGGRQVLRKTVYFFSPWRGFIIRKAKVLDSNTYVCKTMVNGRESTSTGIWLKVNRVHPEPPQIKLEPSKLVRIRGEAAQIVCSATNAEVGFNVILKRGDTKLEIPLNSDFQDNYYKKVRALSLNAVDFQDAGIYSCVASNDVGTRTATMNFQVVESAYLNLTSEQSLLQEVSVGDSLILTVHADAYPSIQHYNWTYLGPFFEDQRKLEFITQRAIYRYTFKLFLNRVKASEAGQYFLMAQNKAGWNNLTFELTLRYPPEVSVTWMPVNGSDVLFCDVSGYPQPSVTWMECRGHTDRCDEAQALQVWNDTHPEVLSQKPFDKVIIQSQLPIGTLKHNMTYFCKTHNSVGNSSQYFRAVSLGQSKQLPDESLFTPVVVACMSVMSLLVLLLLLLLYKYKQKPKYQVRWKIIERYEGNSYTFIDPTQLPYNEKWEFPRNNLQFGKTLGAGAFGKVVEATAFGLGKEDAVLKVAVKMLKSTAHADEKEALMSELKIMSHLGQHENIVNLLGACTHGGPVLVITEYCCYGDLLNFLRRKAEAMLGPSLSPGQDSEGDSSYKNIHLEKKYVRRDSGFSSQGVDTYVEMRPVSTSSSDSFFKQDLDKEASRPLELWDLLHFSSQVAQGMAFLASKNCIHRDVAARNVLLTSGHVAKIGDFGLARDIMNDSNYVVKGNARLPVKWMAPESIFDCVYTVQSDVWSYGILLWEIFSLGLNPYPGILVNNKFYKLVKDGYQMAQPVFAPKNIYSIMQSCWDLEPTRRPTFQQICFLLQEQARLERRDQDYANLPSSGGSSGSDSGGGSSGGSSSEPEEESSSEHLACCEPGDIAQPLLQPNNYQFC
Method: (§1) Experiment 1, FIG. 1A. […] CD1 mice were anaesthetized with avertin (250 mg/kg, IP). Peri-procedural analgesia was provided with finadine (2.5 mg/kg, SC). The coordinates for intraparenchymal injection in the right forebrain were AP −0.5 mm′ DV −2.5 mm; and ML 1.0 right of midline. The holes were drilled perpendicularly to the previously exposed skull. Sterile phosphate buffered saline (PBS) (0.5 μL) or 5 μg lipopolysaccharide (LPS, 011:B4, Calbiochem, San Diego, Calif.) in 0.5 μL PBS was injected into the brain parenchyma using a 1 μL Hamilton syringe. After injection, the needle was kept in the brain for additional 3 min and slowly removed. The incision was sealed with dental cement. […] The whole brains were removed and dissected on ice. […] The outcome variables were calculated as % SUV.
as §1, with “2,” for “1,”, “1B.” for “1A.”, “The” for “CD1”

**Q.** With `[11CH3]N1CCN(c2ccc(NC(=O)c3ccc(C#N)o3)c(N3CCCCC3)c2)CC1` [[^11C]CPPC, 5-cyano-N-(4-(4-[^11C]methylpiperazin-1-yl)-2-(piperidin-1-yl)phenyl)furan-2-carboxamide] as the compound, how does the fraction unbound [1] read?
**A.** 0.0548 ± 0.0098

**Q.** What about the “Brain Parent [^11C]CPPC, %” value ([2]; 10 min) of the same compound?
**A.** 96.6 ± 0.1%

**Q.** And the “Plasma Parent [^11C]CPPC, %” value ([2]; 10 min)?
**A.** 70.2 ± 2.2%

**Q.** And the “Brain Parent [^11C]CPPC, %” value ([2]; 30 min)?
**A.** 95.1 ± 1.6%

**Q.** What about the “Plasma Parent [^11C]CPPC, %” value ([2]; 30 min) of the same compound?
**A.** 39.7 ± 1.3%

**Q.** What about the “parametric VT” value ([3]; LPS-treated baboon (0.05 mg/kg i.v., 4 h before radiotracer)) of the same compound?
**A.** 35-52

**Q.** And the “K1 value, LPS-treated vs baseline” value ([3]; baboon)?
**A.** changed only slightly

**Q.** What about the “decrease of metabolite-corrected radioactivity in plasma, LPS-treated vs. baseline” value ([3]; baboon) of the same compound?
**A.** ~50%

**Q.** And the “parametric VT” value ([3]; baboon baseline)?
**A.** 15-25

**Q.** And the “peak SUV, brain” value ([3]; baboon baseline, 20 min postinjection)?
**A.** 2.5-4.0

**Q.** What about the “increase of distribution volume (VT) values in all brain regions of LPS-treated animal” value ([3]; baboon, LPS 0.05 mg/kg i.v.) of the same compound?
**A.** More than a twofold increase

**Q.** What about the “VT in LPS-plus-blocking study” value ([3]; baboon, blocker CPPC 1 mg/kg s.c. 1.5 h before radiotracer) of the same compound?
**A.** reduction to the baseline level; also recorded: return to the baseline level

**Q.** And the “increase of radiotracer binding in AD brain vs. control brain slices” value ([4]; baseline autoradiography)?
**A.** 75-99%

**Q.** What about the “Autoradiography binding, Blocking with unlabeled CPPC” value (“Autoradiography binding, Blocking” for short) ([4]; sample 1-AD) of the same compound?
**A.** 4.72 ± 1.07 pmol/mm3

**Q.** And the “Autoradiography binding, Baseline” value ([4]; sample 1-AD)?
**A.** 8.18 ± 0.68 pmol/mm3

**Q.** And the “Autoradiography binding, Blocking” value ([4]; sample 2-AD)?
**A.** 2.67 ± 0.53 pmol/mm3

**Q.** And the “Autoradiography binding, Baseline” value ([4]; sample 2-AD)?
**A.** 7.20 ± 1.55 pmol/mm3

**Q.** And the “Autoradiography binding, Blocking” value ([4]; sample 3-AD)?
**A.** 3.73 ± 1.07 pmol/mm3

**Q.** And the “Autoradiography binding, Baseline” value ([4]; sample 3-AD)?
**A.** 7.43 ± 1.59 pmol/mm3

**Q.** And the “Autoradiography binding, Blocking” value ([4]; sample 4-control)?
**A.** 2.86 ± 1.06 pmol/mm3

**Q.** And the “Autoradiography binding, Baseline” value ([4]; sample 4-control)?
**A.** 4.11 ± 1.14 pmol/mm3

**Q.** What about the “specific fraction of elevated binding vs. sham animals” value [5] of the same compound?
**A.** ~50%

**Q.** And the “reduction of uptake by blocking with nonradiolabeled CPPC, low dose” value ([5]; blocker 0.3 mg/kg IP)?
**A.** insignificant

**Q.** And the “reduction of uptake by blocking with nonradiolabeled CPPC, higher doses” value ([5]; blocker 0.6 or […] IP)?
**A.** significantly reduced
